Measurements from patent US20240252488A1 (KOREA RESEARCH INSTITUTE OF CHEMICAL TECHNOLOGY, priority 2020, published 2024).

What was measured:
FADD−/− Jurkat cells = test: Necroptosis inhibition assay, TNF-α-induced necroptosis (CellTiter-Glo 2.0); assay type: cell-based, human; conditions: TNF-α 15 ng/mL; for Necroptosis inhibition assay (Rescue %) 1 μM: compound 1 μM; for Necroptosis inhibition assay (Rescue %) 10 μM: compound 10 μM
How it was run: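 Luminescent ATP measurement gave viability, from which cytotoxicity and necroptosis inhibition rate were derived. Before that, cells (5.0×10^5 cells/mL) saw compound at 0.1, 1 or 10 μM final for 30 minutes at room temperature, then TNF-α (15 ng/mL final) for 20 to 24 hours at 37° C.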

MLKL [1] = target: T1, MLKL (Homo sapiens, UniProt Q8NB16); test: MLKL degradation assay in HepG2 cell line (western blot); assay type: cell-based; set-up: endogenous in cells; host or cells: HepG2 or HaCaT; conditions: cell line not given; for Degradation assay (Degradation %) 1 μM: compound 1 μM; for Degradation assay (Degradation %) 10 μM: compound 10 μM
T1 sequence (Q8NB16 1-471): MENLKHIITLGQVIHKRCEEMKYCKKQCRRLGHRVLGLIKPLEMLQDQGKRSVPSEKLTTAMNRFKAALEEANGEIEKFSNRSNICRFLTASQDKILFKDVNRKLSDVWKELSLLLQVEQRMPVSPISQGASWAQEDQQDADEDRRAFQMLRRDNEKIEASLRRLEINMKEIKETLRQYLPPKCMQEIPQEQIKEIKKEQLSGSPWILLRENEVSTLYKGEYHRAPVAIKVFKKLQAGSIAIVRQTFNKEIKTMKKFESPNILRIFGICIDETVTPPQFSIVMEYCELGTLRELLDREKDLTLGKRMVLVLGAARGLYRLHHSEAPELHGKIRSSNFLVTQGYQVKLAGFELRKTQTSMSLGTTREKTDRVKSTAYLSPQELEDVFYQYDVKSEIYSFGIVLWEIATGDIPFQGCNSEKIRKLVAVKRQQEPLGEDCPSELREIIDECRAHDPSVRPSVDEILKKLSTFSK
How it was run: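 Cells seeded, next day medium swapped for compound-containing medium (final 1 or 10 μM) and incubated 20-24 h at 37 °C. Lysates in RIPA with protease/phosphatase inhibitors were protein-matched by BCA, run on SDS-PAGE and immunoblotted for MLKL.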

MLKL [2] = target: T1, MLKL; test: Measurement of binding affinity with MLKL receptor (competitive binding assay, Kd); set-up: made in house; host or cells: HEK 293 cell line (T7 phage in E. coli BL21-derived host is also described)
How it was run: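 Competition binding of kinase tagged with DNA for qPCR detection, expressed in HEK 293 cells, against immobilized ligand on beads. Final DMSO 0.9%. Kd derived from kinase amount in eluates measured by qPCR.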

Structure (SMILES): COc1ccc(C(=O)N2CCC(CN3CCC(n4cc(-c5cnc(N)c(C(=O)O[C@@H](C(=O)Nc6ccc(F)cc6)c6ccccc6)n5)cn4)CC3)CC2)cc1N1CCC(=O)NC1=O [TDH-445, (R)-2-((4-fluorophenyl)amino)-2-oxo-1-phenylethyl 3-amino-6-(1-(1-((1-(3-(2,4-dioxotetrahydropyrimidin-1(2H)-yl)-4-methoxybenzoyl)piperidin-4-yl)methyl)piperidin-4-yl)-1H-pyrazol-4-yl)pyrazine-2-carboxylate]
- Necroptosis inhibition assay (Rescue %) 1 μM (FADD−/− Jurkat cells; FADD−/− Jurkat cells): 12.07%
- Necroptosis inhibition assay (Rescue %) 10 μM (FADD−/− Jurkat cells; FADD−/− Jurkat cells): 19.83%
- Degradation assay (Degradation %) 1 μM (MLKL [1]): 20.29%
- Degradation assay (Degradation %) 10 μM (MLKL [1]): 27.38%
- Kd (MLKL [2]): 0.6 nM

Structure (SMILES): Nc1ncc(-c2cnn(C3CCN(CCOCCNC(=O)COc4cccc5c4C(=O)N(C4CCC(=O)NC4=O)C5=O)CC3)c2)nc1C(=O)O[C@@H](C(=O)Nc1ccc(F)cc1)c1ccccc1 (stereo partly drawn) [TDH-134, (R)-2-((4-fluorophenyl)amino)-2-oxo-1-phenylethyl 3-amino-6-(1-(1-(2-(2-(2-((2-(2,6-dioxopiperidin-3-yl)-1,3-dioxoisoindolin-4-yl)oxy)acetamido)ethoxy)ethyl)piperidin-4-yl)-1H-pyrazol-4-yl)pyrazine-2-carboxylate]
- Necroptosis inhibition assay (Rescue %) 1 μM (FADD−/− Jurkat cells): 50.04%
- Necroptosis inhibition assay (Rescue %) 10 μM (FADD−/− Jurkat cells): 86.09%
- Degradation assay (Degradation %) 1 μM (MLKL [1]): 14.36%
- Degradation assay (Degradation %) 10 μM (MLKL [1]): 54.11%
- Kd (MLKL [2]): 3 nM

Structure (SMILES): Nc1ncc(-c2cnn(C3CCN(CCOC4CCN(C(=O)C5CN(C6=CC(=O)N(C7CCC(=O)NC7=O)C6=O)C5)CC4)CC3)c2)nc1C(=O)O[C@@H](C(=O)Nc1ccc(F)cc1)c1ccccc1 (stereo partly drawn) [TDH-541, (R)-2-((4-fluorophenyl)amino)-2-oxo-1-phenylethyl 3-amino-6-(1-(1-(2-((1-(1-(1-(2,6-dioxopiperidin-3-yl)-2,5-dioxo-2,5-dihydro-1H-pyrrol-3-yl)azetidine-3-carbonyl)piperidin-4-yl)oxy)ethyl)piperidin-4-yl)-1H-pyrazol-4-yl)pyrazine-2-carboxylate]
- Necroptosis inhibition assay (Rescue %) 1 μM (FADD−/− Jurkat cells; FADD−/− Jurkat cells): 24.95%
- Necroptosis inhibition assay (Rescue %) 10 μM (FADD−/− Jurkat cells; FADD−/− Jurkat cells): 24.58%
- Degradation assay (Degradation %) 1 μM (MLKL [1]): 78.24%
- Degradation assay (Degradation %) 10 μM (MLKL [1]): 69.17%
- Kd (MLKL [2]): 0.34 nM

Structure (SMILES): Nc1ncc(-c2cnn(C3CCN(CCOCCOCCNC(=O)CNc4cccc5c4C(=O)N(C4CCC(=O)NC4=O)C5=O)CC3)c2)nc1C(=O)O[C@@H](C(=O)Nc1ccc(F)cc1)c1ccccc1 (stereo partly drawn) [TDH-102, (R)-2-((4-fluorophenyl)amino)-2-oxo-1-phenylethyl 3-amino-6-(1-(1-(2-(2-(2-(2-((2-(2,6-dioxopiperidin-3-yl)-1,3-dioxoisoindolin-4-yl)amino)acetamido)ethoxy)ethoxy)ethyl)piperidin-4-yl)-1H-pyrazol-4-yl)pyrazine-2-carboxylate]
- Necroptosis inhibition assay (Rescue %) 1 μM (FADD−/− Jurkat cells): 39.17%
- Necroptosis inhibition assay (Rescue %) 10 μM (FADD−/− Jurkat cells): 42.99%
- Degradation assay (Degradation %) 1 μM (MLKL [1]): 12.94%
- Degradation assay (Degradation %) 10 μM (MLKL [1]): 42.92%
- Kd (MLKL [2]): 2.1 nM

Structure (SMILES): Nc1ncc(-c2cnn([C@@H]3CCN(CC4CCN(C(=O)COc5ccc6c(c5)C(=O)N(C5CCC(=O)NC5=O)C6=O)CC4)C3)c2)nc1C(=O)O[C@@H](C(=O)Nc1ccc(F)cc1)c1ccccc1 (stereo partly drawn) [TDH-359, (R)-2-((4-fluorophenyl)amino)-2-oxo-1-phenylethyl 3-amino-6-(1-((3R)-1-((1-(2-((2-(2,6-dioxopiperidin-3-yl)-1,3-dioxoisoindolin-5-yl)oxy)acetyl)piperidin-4-yl)methyl)pyrrolidin-3-yl)-1H-pyrazol-4-yl)pyrazine-2-carboxylate]
- Necroptosis inhibition assay (Rescue %) 1.1 μM (FADD−/− Jurkat cells; compound 1.1 µM): 67.68 (1.1 µM) %
- Necroptosis inhibition assay (Rescue %) 10 μM (FADD−/− Jurkat cells): 40.02%
- Degradation assay (Degradation %) 1 μM (MLKL [1]): 92.98%
- Degradation assay (Degradation %) 10 μM (MLKL [1]): 85.17%
- Kd (MLKL [2]): 1.7 nM

Structure (SMILES): Nc1ncc(-c2cnn(C3CCN(CCCCCCNC(=O)COc4cccc5c4C(=O)N(C4CCC(=O)NC4=O)C5=O)CC3)c2)nc1C(=O)O[C@@H](C(=O)Nc1ccc(F)cc1)c1ccccc1 (stereo partly drawn) [TDH-133, (R)-2-((4-fluorophenyl)amino)-2-oxo-1-phenylethyl 3-amino-6-(1-(1-(6-(2-((2-(2,6-dioxopiperidin-3-yl)-1,3-dioxoisoindolin-4-yl)oxy)acetamido)hexyl)piperidin-4-yl)-1H-pyrazol-4-yl)pyrazine-2-carboxylate]
- Necroptosis inhibition assay (Rescue %) 1 μM (FADD−/− Jurkat cells): 91.87%
- Necroptosis inhibition assay (Rescue %) 10 μM (FADD−/− Jurkat cells): 68.81%
- Degradation assay (Degradation %) 1 μM (MLKL [1]): 53.05%
- Degradation assay (Degradation %) 10 μM (MLKL [1]): 40.54%
- Kd (MLKL [2]): 0.78 nM

Structure (SMILES): Nc1ncc(-c2cnn([C@H]3CCN(CCOCCOCCNC(=O)COc4ccc5c(c4)C(=O)N(C4CCC(=O)NC4=O)C5=O)C3)c2)nc1C(=O)OC(C(=O)Nc1ccc(F)cc1)c1ccccc1 (stereo partly drawn) [TDH-266, 2-((4-fluorophenyl)amino)-2-oxo-1-phenylethyl 3-amino-6-(1-((3S)-1-(2-(2-(2-(2-((2-(2,6-dioxopiperidin-3-yl)-1,3-dioxoisoindolin-5-yl)oxy)acetamido)ethoxy)ethoxy)ethyl)pyrrolidin-3-yl)-1H-pyrazol-4-yl)pyrazine-2-carboxylate]
- Necroptosis inhibition assay (Rescue %) 1 μM (FADD−/− Jurkat cells): 35.24%
- Necroptosis inhibition assay (Rescue %) 10 μM (FADD−/− Jurkat cells): 68.2%
- Degradation assay (Degradation %) 1 μM (MLKL [1]): 18.14%
- Degradation assay (Degradation %) 10 μM (MLKL [1]): 40.08%
- Kd (MLKL [2]): 6 nM

Structure (SMILES): Nc1ncc(-c2cnn(C3CCN(CCCN4CCN(C(=O)CNc5ccc6c(c5)C(=O)N(C5CCC(=O)NC5=O)C6=O)CC4)CC3)c2)nc1C(=O)OC(C(=O)Nc1ccc(F)cc1)c1ccccc1 (stereo not shown) [TDH-242, 2-((4-fluorophenyl)amino)-2-oxo-1-phenylethyl 3-amino-6-(1-(1-(3-(4-((2-(2,6-dioxopiperidin-3-yl)-1,3-dioxoisoindolin-5-yl)glycyl)piperazin-1-yl)propyl)piperidin-4-yl)-1H-pyrazol-4-yl)pyrazine-2-carboxylate]
- Necroptosis inhibition assay (Rescue %) 1 μM (FADD−/− Jurkat cells): 71.4%
- Necroptosis inhibition assay (Rescue %) 10 μM (FADD−/− Jurkat cells): 44.8%
- Degradation assay (Degradation %) 1 μM (MLKL [1]): 75.75%
- Degradation assay (Degradation %) 10 μM (MLKL [1]): 66.84%
- Kd (MLKL [2]): 2.5 nM

Structure (SMILES): Nc1ncc(-c2cnn(C3CCN(CC4CN(C(=O)CNc5ccc6c(c5)C(=O)N(C5CCC(=O)NC5=O)C6=O)CCO4)CC3)c2)nc1C(=O)OC(C(=O)Nc1ccc(F)cc1)c1ccccc1 (stereo not shown) [TDH-307, 2-((4-fluorophenyl)amino)-2-oxo-1-phenylethyl 3-amino-6-(1-(1-((4-((2-(2,6-dioxopiperidin-3-yl)-1,3-dioxoisoindolin-5-yl)glycyl)morpholin-2-yl)methyl)piperidin-4-yl)-1H-pyrazol-4-yl)pyrazine-2-carboxylate]
- Necroptosis inhibition assay (Rescue %) 1 μM (FADD−/− Jurkat cells): 83.43%
- Necroptosis inhibition assay (Rescue %) 10 μM (FADD−/− Jurkat cells): 73.58%
- Degradation assay (Degradation %) 1 μM (MLKL [1]): 57.38%
- Degradation assay (Degradation %) 10 μM (MLKL [1]): 24.79%
- Kd (MLKL [2]): 1.6 nM

Structure (SMILES): Nc1ncc(-c2cnn([C@@H]3CCN(CCOCCOCCNC(=O)COc4cccc5c4C(=O)N(C4CCC(=O)NC4=O)C5=O)C3)c2)nc1C(=O)OC(C(=O)Nc1ccc(F)cc1)c1ccccc1 (stereo partly drawn) [TDH-269, 2-((4-fluorophenyl)amino)-2-oxo-1-phenylethyl 3-amino-6-(1-((3R)-1-(2-(2-(2-(2-((2-(2,6-dioxopiperidin-3-yl)-1,3-dioxoisoindolin-4-yl)oxy)acetamido)ethoxy)ethoxy)ethyl)pyrrolidin-3-yl)-1H-pyrazol-4-yl)pyrazine-2-carboxylate]
- Necroptosis inhibition assay (Rescue %) 1 μM (FADD−/− Jurkat cells): 35.71%
- Necroptosis inhibition assay (Rescue %) 10 μM (FADD−/− Jurkat cells): 81.5%
- Degradation assay (Degradation %) 10 μM (MLKL [1]): 12.14%
- Kd (MLKL [2]): 5.4 nM
